Test results published in patent US20050155119A1, “Chlorophyllous totipotent cell cultures” (Dow AgroSciences LLC, priority 2004, published 2005).

What was measured:
rice = details: in vivo; cited from earlier work
maize = details: in vivo; cited from earlier work
green suspension cells = experiment: Response of the green maize suspension to streptomycin and spectinomycin; assay type: cell-based
Brassica juncea = details: 100 mg Zn/l (1529 μm) added to soil mixtures; cited from earlier work
Halophila ovalis = details: 10 mg/l of Zn (153 μm); cited from earlier work
PS-II electron transport = experiment: Oxygen electrode determination of photosynthetic electron transport with diuron; assay type: cell-based, maize
Procedure: The oxygen electrode was set up per manufacturer's instructions by covering the silver electrode with layers of KCl solution, cigarette paper, and PTFE gas permeable membrane. The circulating water bath used to maintain a constant temperature of 24° C. during the course of the experiments. An experiment was initiated by the addition of 1 mL of suspension containing 100 mg of the green suspension cells to the electrode chamber. Oxygen uptake within the chamber was limited by the insertion of a plunger to the level of the liquid, and the flea magnet was turned on to assure adequate mixing during each experiment. Data points were collected by LabVIEW 5.1 and sent to an EXCEL spreadsheet. Data points were collected at a rate of 0.2/sec over 70 scans. […]
Photosynthetic electron transport was measured with an oxygen electrode in the absence and presence of diuron (DCMU), a PS-II electron transport inhibitor at several concentrations (Figure below). […] A light intensity of 225 μmol M^−2 S^−1 photosynthetic photon flux density was used to drive electron transport, and oxygen evolution was measured polarographically.
Whether or not Diuron treatment lead to inhibition of oxygen was investigated using an oxygen electrode. To determine amount of photosynthesis occurring in the cells, respiration rates were measured with and without the exposure of the cells to a strong light source. […]

[Cu] [Cu, Copper]
critical Cu toxicity level (rice): 20 mg/kg | No Observable Adverse Effect Level (tissue concentration that did not decrease top growth) (maize): 40 mg/kg | critical Cu toxicity level (maize): 20 mg/kg | critical level of Cu (maize): 21 mg/kg

[H]/N=C(/N)N[C@H]1[C@H](O)[C@@H](O)[C@H](O[C@@H]2O[C@@H](C)[C@](O)(C=O)[C@H]2O[C@@H]2O[C@@H](CO)[C@H](O)[C@@H](O)[C@@H]2NC)[C@@H](N/C(N)=N\[H])[C@@H]1O [Streptomycin]
plants recovered when germinated in Streptomycin-containing medium (green suspension cells; 62.5 mg/L): albino plants were recovered | bleaching of cells (green suspension cells; 125 mg/L): fully bleached | plants recovered when germinated in Streptomycin-containing medium (green suspension cells; 125 mg/l (FIG. 2 legend)): albino plants were recovered | bleaching of cells (green suspension cells; 250 mg/L (FIG. 2 legend)): partially bleached | appearance of cells (green suspension cells; 500 mg/L): excessive browning and necrosis | growth and appearance of green suspension cells (green suspension cells; 500 mg/l, after ~4 weeks): growth was inhibited, and the cells were bleached or browned and showed excessive necrosis

[Zn] [Zn, Zinc]
phytotoxicity (Brassica juncea): not phytotoxic | total chlorophyll concentrations (Halophila ovalis): increase in total chlorophyll concentrations

CN(C)C(=O)Nc1ccc(Cl)c(Cl)c1 [diuron]
concentration with greater effect of inhibiting the light reaction of photosynthesis (PS-II electron transport; 100 mg green suspension in 1 mL, illuminated, oxygen electrode): 0.01 M | effect on light induced oxygen evolution (PS-II electron transport; green suspension, FIG. 4): cut down the light induced oxygen evolution

CN[C@@H]1[C@H](O)[C@H](NC)[C@H]2O[C@@]3(O)C(=O)C[C@@H](C)O[C@H]3O[C@@H]2[C@H]1O [spectinomycin]
response of the green suspension (green suspension cells; various spectinomycin concentrations): did not respond
